The source of these data is patent US20210221848A1, “POLYMYXIN DERIVATIVES AND THEIR USE IN COMBINATION THERAPY TOGETHER WITH DIFFERENT ANTIBIOTICS” (priority 2014, published 2021).

Where two headings read alike, the source gives them in different places. Some results are limits rather than exact numbers.

Experiment [1] concerns E. coli strains with elevated MICs to Polymyxin B. Briefly: MIC against strains with elevated MICs to Polymyxin B. In kind it is cell-based, Escherichia coli. As to conditions: Table 6D; for MIC E. coli 058: strain 058, elevated MIC to Polymyxin B; for MIC E. coli 059: strain 059, elevated MIC to Polymyxin B; for MIC E. coli 060: strain 060, elevated MIC to Polymyxin B; for MIC E. coli 061: strain 061, elevated MIC to Polymyxin B. The method in brief:
(§1)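 Inoculum was a direct suspension of colonies from an 18-24 hour Mueller-Hinton agar plate, adjusted to the 0.5 McFarland standard. Duplicate assays; the lower value was reported when duplicates differed by less than 2-fold, otherwise the run was invalid. Repeat-tested compounds give the modal MIC.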

Experiment [2] relates to K. pneumoniae strains with elevated MICs to Polymyxin B. The description is as above. The following applies: Table 6D; for MIC K. pneumoniae 062: strain 062, elevated MIC to Polymyxin B; for MIC K. pneumoniae 063: strain 063, elevated MIC to Polymyxin B; for MIC K. pneumoniae 064: strain 064, elevated MIC to Polymyxin B; for MIC K. pneumoniae 655: strain 655, elevated MIC to Polymyxin B. It is filed as cell-based, Klebsiella pneumoniae. The essentials:
as §1

The test system of experiment [3] is P. aeruginosa strains with elevated MICs to Polymyxin B. The description is as above. It is filed as cell-based, Pseudomonas aeruginosa. As to conditions: Table 6D; for MIC P. aeruginosa 065: strain 065, elevated MIC to Polymyxin B; for MIC P. aeruginosa 066: strain 066, elevated MIC to Polymyxin B; for MIC P. aeruginosa 067: strain 067, elevated MIC to Polymyxin B. The essentials: as §1

The subject of experiment [4] is A. baumanii strains with elevated MICs to Polymyxin B. The experiment is described as above. It is filed as cell-based, Acinetobacter baumannii. As to conditions: Table 6D; for MIC A. baumannii 053: strain 053, elevated MIC to Polymyxin B; for MIC A. baumannii 056: strain 056, elevated MIC to Polymyxin B; for MIC A. baumannii 068: strain 068, elevated MIC to Polymyxin B; for MIC A. baumannii 070: strain 070, elevated MIC to Polymyxin B. The essentials: as §1

[5] abbreviates: absence of a second agent, Table 6B.

Take “1-(2- trifluoromethylben- zyl)piperazine- 2-carbonyl L-Thr- L-Dap-polymyxin B heptapeptide [Example D71]”: in experiment [1], the “MIC E. coli 058” value is given as 1 micrograms/mL, the “MIC E. coli 059” value is given as 8 micrograms/mL, the “MIC E. coli 060” value is recorded as 4 micrograms/mL and the “MIC E. coli 061” value was found to be 8 micrograms/mL. For the same substance, in experiment [2], the “MIC K. pneumoniae 062” value stood at 32 micrograms/mL, the “MIC K. pneumoniae 063” value was 16 micrograms/mL, the “MIC K. pneumoniae 064” value came out at 4 micrograms/mL and the “MIC K. pneumoniae 655” value is 32 micrograms/mL. Also, in experiment [3], the “MIC P. aeruginosa 065” value was found to be 0.5 micrograms/mL, the “MIC P. aeruginosa 066” value came out at 1 micrograms/mL and the “MIC P. aeruginosa 067” value was 16 micrograms/mL. Besides, in experiment [4], the “MIC A. baumannii 053” value is 64 micrograms/mL, the “MIC A. baumannii 056” value came to 16 micrograms/mL, the “MIC A. baumannii 068” value was 4 micrograms/mL and the “MIC A. baumannii 070” value turned out to be 8 micrograms/mL. For the same substance, in the experiment with E. coli (sole activity, Table 6C), the “MIC, E. coli ATCC 25922” value was 0.25 micrograms/mL and the “MIC, E. coli NCTC 13441” value is 0.25 micrograms/mL. Also, in the experiment with K. pneumoniae (sole activity, Table 6C), the “MIC, K. pneumoniae ATCC 4352” value worked out at 0.25 micrograms/mL and the “MIC, K. pneumoniae ATCC BAA-2146” value was 0.5 micrograms/mL. In the experiment on P. aeruginosa (sole activity, Table 6C), the “MIC, P. aeruginosa ATCC 27853” value is 0.5 micrograms/mL and the “MIC, P. aeruginosa CCUG 59347” value is 1 micrograms/mL. For the same substance, in the experiment with A. baumannii (sole activity, Table 6C), the “MIC, A. baumannii ATCC BAA-747” value was determined as 0.5 micrograms/mL and the “MIC, A. baumannii NCTC 13424” value was found to be 0.25 micrograms/mL.

“cis-5- (isobutylcarbamoyl) piperidine-3- carbonyl L-Thr-L- Dap-polymyxin B heptapeptide [Example D81]”: in experiment [1], the “MIC E. coli 058” value is given as 8 micrograms/mL, the “MIC E. coli 059” value came to 16 micrograms/mL, the “MIC E. coli 060” value was 8 micrograms/mL and the “MIC E. coli 061” value stood at 32 micrograms/mL. Moreover, in experiment [2], the “MIC K. pneumoniae 063” value came to 64 micrograms/mL, the “MIC K. pneumoniae 064” value is listed as 16 micrograms/mL and the “MIC K. pneumoniae 655” value is given as 64 micrograms/mL. Besides, in experiment [3], the “MIC P. aeruginosa 065” value was 2 micrograms/mL, the “MIC P. aeruginosa 066” value stood at 16 micrograms/mL and the “MIC P. aeruginosa 067” value was more than 128 micrograms/mL. Besides, in experiment [4], the “MIC A. baumannii 053” value was found to be 128 micrograms/mL, the “MIC A. baumannii 056” value came out at 32 micrograms/mL, the “MIC A. baumannii 068” value turned out to be 32 micrograms/mL and the “MIC A. baumannii 070” value is recorded as 32 micrograms/mL. Moreover, in the experiment on E. coli (sole activity, Table 6C), the “MIC, E. coli ATCC 25922” value turned out to be 0.06 micrograms/mL. In the experiment with K. pneumoniae (sole activity, Table 6C), the “MIC, K. pneumoniae ATCC 4352” value came out at 0.06 micrograms/mL and the “MIC, K. pneumoniae ATCC BAA-2146” value was 0.06 micrograms/mL. Also, in the experiment on P. aeruginosa (sole activity, Table 6C), the “MIC, P. aeruginosa ATCC 27853” value is on record as 0.25 micrograms/mL and the “MIC, P. aeruginosa CCUG 59347” value is reported as 0.5 micrograms/mL. Moreover, in the experiment with A. baumannii (sole activity, Table 6C), the “MIC, A. baumannii ATCC BAA-747” value stood at 0.03 micrograms/mL and the “MIC, A. baumannii NCTC 13424” value was determined as 0.06 micrograms/mL.

As to “trans-4- octylpyrrolidine-3- carbonyl polymyxin B nonapeptide [Example D30]”, in experiment [1], the “MIC E. coli 058” value is given as 1 micrograms/mL, the “MIC E. coli 059” value came to 1 micrograms/mL, the “MIC E. coli 060” value is 1 micrograms/mL and the “MIC E. coli 061” value was 4 micrograms/mL. Besides, in experiment [2], the “MIC K. pneumoniae 063” value turned out to be 4 micrograms/mL, the “MIC K. pneumoniae 064” value was determined as 1 micrograms/mL and the “MIC K. pneumoniae 655” value is recorded as 2 micrograms/mL. In experiment [3], the “MIC P. aeruginosa 065” value came to 0.5 micrograms/mL, the “MIC P. aeruginosa 066” value amounted to 0.5 micrograms/mL and the “MIC P. aeruginosa 067” value amounted to 16 micrograms/mL. In addition, in experiment [4], the “MIC A. baumannii 053” value came out at 16 micrograms/mL, the “MIC A. baumannii 056” value is reported as 8 micrograms/mL, the “MIC A. baumannii 068” value is 2 micrograms/mL and the “MIC A. baumannii 070” value turned out to be 1 micrograms/mL. In the experiment on E. coli (setting [5]), the “MIC, E. coli ATCC 25922” value was 2 micrograms/mL and the “MIC, E. coli NCTC 13441” value is 2 micrograms/mL. For the same substance, the “MIC, K. pneumoniae ATCC 4352” value in the experiment on K. pneumoniae (setting [5]) worked out at 1 micrograms/mL. Moreover, in the experiment with P. aeruginosa (setting [5]), the “MIC, P. aeruginosa ATCC 27853” value is listed as 1 micrograms/mL and the “MIC, P. aeruginosa CCUG 59347” value is recorded as 1 micrograms/mL. Besides, in the experiment on A. baumannii (setting [5]), the “MIC, A. baumannii ATCC BAA-747” value is 1 micrograms/mL and the “MIC, A. baumannii NCTC 13424” value turned out to be 2 micrograms/mL.

With “(S)-1-isobutyl piperazine-2- carbonyl-L-Thr- L-Dap-polymyxin B heptapeptide [Example D69]”, in experiment [1], the “MIC E. coli 058” value came out at 8 micrograms/mL, the “MIC E. coli 059” value is on record as 16 micrograms/mL, the “MIC E. coli 060” value was 8 micrograms/mL and the “MIC E. coli 061” value came to 32 micrograms/mL. Besides, in experiment [2], the “MIC K. pneumoniae 063” value came to 128 micrograms/mL and the “MIC K. pneumoniae 064” value is 32 micrograms/mL. In experiment [3], the “MIC P. aeruginosa 065” value amounted to 16 micrograms/mL, the “MIC P. aeruginosa 066” value is recorded as 32 micrograms/mL and the “MIC P. aeruginosa 067” value was more than 256 micrograms/mL. Further, in experiment [4], the “MIC A. baumannii 053” value is recorded as more than 256 micrograms/mL, the “MIC A. baumannii 056” value is reported as 256 micrograms/mL and the “MIC A. baumannii 068” value came out at 32 micrograms/mL. Moreover, in the experiment on E. coli (sole activity, Table 6C), the “MIC, E. coli ATCC 25922” value was determined as 0.25 micrograms/mL and the “MIC, E. coli NCTC 13441” value was determined as 0.125 micrograms/mL. In addition, the “MIC, K. pneumoniae ATCC 4352” value against K. pneumoniae (sole activity, Table 6C) stood at 0.125 micrograms/mL. For the same substance, in the experiment with P. aeruginosa (sole activity, Table 6C), the “MIC, P. aeruginosa ATCC 27853” value stood at 0.5 micrograms/mL and the “MIC, P. aeruginosa CCUG 59347” value worked out at 0.5 micrograms/mL. Further, in the experiment on A. baumannii (sole activity, Table 6C), the “MIC, A. baumannii ATCC BAA-747” value is 0.25 micrograms/mL and the “MIC, A. baumannii NCTC 13424” value was 0.5 micrograms/mL.

Regarding “trans-5- cyclohexyl- piperidine-3- carbonyl L-Thr-L- Dap-polymyxin E heptapeptide [Example D86]”, in experiment [1], the “MIC E. coli 058” value came to 0.5 micrograms/mL, the “MIC E. coli 059” value turned out to be 1 micrograms/mL, the “MIC E. coli 060” value is 1 micrograms/mL and the “MIC E. coli 061” value is 4 micrograms/mL. In addition, in experiment [2], the “MIC K. pneumoniae 062” value amounted to 1 micrograms/mL, the “MIC K. pneumoniae 063” value came to 8 micrograms/mL, the “MIC K. pneumoniae 064” value was 1 micrograms/mL and the “MIC K. pneumoniae 655” value is listed as 4 micrograms/mL. Also, in experiment [3], the “MIC P. aeruginosa 065” value is 0.5 micrograms/mL, the “MIC P. aeruginosa 066” value worked out at 0.25 micrograms/mL and the “MIC P. aeruginosa 067” value is reported as 32 micrograms/mL. For the same substance, in experiment [4], the “MIC A. baumannii 053” value is given as 16 micrograms/mL, the “MIC A. baumannii 056” value is 50.25 micrograms/mL, the “MIC A. baumannii 068” value came out at 1 micrograms/mL and the “MIC A. baumannii 070” value turned out to be 2 micrograms/mL. In addition, in the experiment with E. coli (sole activity, Table 6C), the “MIC, E. coli ATCC 25922” value came out at 0.125 micrograms/mL. Besides, the “MIC, K. pneumoniae ATCC 4352” value against K. pneumoniae (sole activity, Table 6C) is recorded as 0.03 micrograms/mL. Moreover, in the experiment with P. aeruginosa (sole activity, Table 6C), the “MIC, P. aeruginosa ATCC 27853” value is reported as 0.25 micrograms/mL and the “MIC, P. aeruginosa CCUG 59347” value amounted to 0.5 micrograms/mL. In addition, in the experiment on A. baumannii (sole activity, Table 6C), the “MIC, A. baumannii ATCC BAA-747” value turned out to be 0.03 micrograms/mL and the “MIC, A. baumannii NCTC 13424” value was 0.06 micrograms/mL.

For “3-aminomethyl- undecanoyl polymyxin B nonapeptide [Example D33]”, in experiment [1], the “MIC E. coli 059” value came out at 2 micrograms/mL, the “MIC E. coli 060” value came to 2 micrograms/mL and the “MIC E. coli 061” value came out at 8 micrograms/mL. In experiment [2], the “MIC K. pneumoniae 062” value is recorded as 2 micrograms/mL, the “MIC K. pneumoniae 063” value is 16 micrograms/mL, the “MIC K. pneumoniae 064” value came to 2 micrograms/mL and the “MIC K. pneumoniae 655” value is recorded as 32 micrograms/mL. For the same substance, in experiment [3], the “MIC P. aeruginosa 066” value stood at 4 micrograms/mL and the “MIC P. aeruginosa 067” value is given as 32 micrograms/mL. For the same substance, in experiment [4], the “MIC A. baumannii 053” value is reported as 32 micrograms/mL, the “MIC A. baumannii 056” value amounted to 16 micrograms/mL, the “MIC A. baumannii 068” value was 4 micrograms/mL and the “MIC A. baumannii 070” value worked out at 4 micrograms/mL. Moreover, in the experiment with E. coli (setting [5]), the “MIC, E. coli ATCC 25922” value worked out at 1 micrograms/mL and the “MIC, E. coli NCTC 13441” value stood at 2 micrograms/mL. Moreover, the “MIC, K. pneumoniae ATCC 4352” value against K. pneumoniae (setting [5]) is on record as 2 micrograms/mL. Besides, in the experiment on P. aeruginosa (setting [5]), the “MIC, P. aeruginosa ATCC 27853” value is on record as 0.5 micrograms/mL and the “MIC, P. aeruginosa CCUG 59347” value worked out at 1 micrograms/mL. Besides, in the experiment with A. baumannii (setting [5]), the “MIC, A. baumannii ATCC BAA-747” value came out at 1 micrograms/mL and the “MIC, A. baumannii NCTC 13424” value is reported as 2 micrograms/mL.
